From ChEMBL document CHEMBL5137081, “N-Heterocyclic 3-Pyridyl Carboxamide Inhibitors of DHODH for the Treatment of Acute Myelogenous Leukemia” (J Med Chem, 2022) come the findings set out here.

Broadly, the half-life is how long it takes for the measured level to halve. What is called IC50 is the concentration needed to halve the response being measured. Broadly, the Kd is a measure of binding affinity in units of concentration. By TGI is commonly meant the reduction of tumour growth relative to the control group. In general, efflux ratio refers to a quotient of directional permeabilities that is used to spot active efflux.

Data set [1] can be described thus: Metabolic stability in human liver microsome assessed as intrinsic clearance pretreated for 5 mins followed by NADPH addition and measured upto 60 mins by HPLC-MS/MS analysis. Format: ADME. Conditions: microsomes, 1.083 h, time < 65 min.
The nature of data set [2]: Toxicity in NSG mouse xenografted with human MOLM-13 cells assessed as change in body weight at 10 to 20 mg/kg, po qd administered for 5 days. Format: organism-based. Conditions: in vivo, 120 h, dose 10-20 mg/kg, time 5 day. (In xenograft studies the graft and the host belong to different species.)
Data set [3] is described as follows: Half life in Sprague-Dawley rat at 10 mg/kg, po or 2 mg/kg, iv measured upto 24 hrs by LC-MS/MS analysis. Format: ADME, organism-based. Conditions: in vivo.
Data set [4] is described as follows: Volume of distribution at steady state in Sprague-Dawley rat at 10 mg/kg, po or 2 mg/kg, iv measured upto 24 hrs by LC-MS/MS analysis. Format: ADME, organism-based. Conditions: in vivo.
The next data set concerns the target Cytochrome P450 2C19 (Homo sapiens, UniProt P33261). The data set is described as follows: Inhibition of CYP2C19 in human liver microsomes incubated for 10 mins by LC-MS/MS analysis. Format: ADME, Microsome.
In data set [5] the target is T1, Dihydroorotate dehydrogenase (quinone), mitochondrial (Homo sapiens, UniProt Q02127). The data set is described as follows: Binding affinity to His fused human DHODH expressed in Escherichia coli by surface plasmon resonance assay. (In general: Surface plasmon resonance follows binding to a sensor surface in real time, without labels.)
Data set [6] can be described thus: Inhibition of monkey DHODH. The arrangement: species or system Macaca mulatta.
The subject of data set [7] is MOLM-13. The data set is described as follows: Antitumor activity against human MOLM-13 cells xenografted in NSG mouse assessed as tumor growth inhibition at 20 mg/kg, po qd administered for 5 days relative to control. Format: functional. Conditions: MOLM-13, 120 h, time 5 day, read-out: TGI.
The subject of data set [8] is MOLM-13. The data set is described as follows: Antitumor activity against human MOLM-13 cells xenografted in NSG mouse assessed as tumor growth inhibition at 10 mg/kg, po qd administered for 5 days relative to control. Conditions: MOLM-13, 120 h, time 5 day, read-out: TGI. Format: functional.
Data set [9] can be described thus: Intrinsic clearance in mouse hepatocytes measured per 10^6 cells. Format: ADME, cell-based, Hepatocyte.
The subject of another data set is THP-1. The data set is described as follows: Antiproliferative activity against human THP-1 cells assessed as reduction in cell viability measured after 72 hrs. Format: functional, cell-based. Conditions: THP-1, 72 h.
Data set [10] concerns the target T1, Dihydroorotate dehydrogenase (quinone), mitochondrial.
Description: Binding affinity to His fused human DHODH expressed in Escherichia coli assessed as dissociation half life by surface plasmon resonance assay
Data set [11] in a line: Volume of distribution at steady state in C57BL/6 mouse at 10 mg/kg, po or 2 mg/kg, iv measured upto 24 hrs by LC-MS/MS analysis. Format: ADME, organism-based. Conditions: in vivo.
A short description of data set [12]: Metabolic stability in monkey liver microsome assessed as intrinsic clearance pretreated for 5 mins followed by NADPH addition and measured upto 60 mins by HPLC-MS/MS analysis. Format: ADME, Macaca mulatta. Conditions: rhesus monkey, liver microsomes; time < 65 min; read-out: CLH. Background: Microsomes from liver hold many membrane-bound enzymes, among them those of drug oxidation.

Data set [13] is described as follows: Intrinsic clearance in rat hepatocytes measured per 10^6 cells. Format: ADME, cell-based, Hepatocyte.
A short description of data set [14]: Half life in C57BL/6 mouse at 10 mg/kg, po or 2 mg/kg, iv measured upto 24 hrs by LC-MS/MS analysis. Conditions: in vivo. Format: ADME, organism-based.
The nature of data set [15]: Intrinsic clearance in monkey hepatocytes measured per 10^6 cells. Format: ADME, cell-based, Macaca mulatta, Hepatocyte. Conditions: rhesus monkey.
Data set [16] is described as follows: Toxicity in NSG mouse xenografted with human MOLM-13 cells assessed as change in body weight at 1.5 to 7.9 mg/kg, po qd administered for 5 days. Format: organism-based. Conditions: in vivo, 120 h, dose 1.5-7.9 mg/kg, time 5 day.
The subject of data set [17] is MOLM-13. The data set is described as follows: Antitumor activity against human MOLM-13 cells xenografted in NSG mouse assessed as tumor growth inhibition at 7.5 mg/kg, po qd administered for 5 days relative to control. Format: functional. Conditions: time 5 day.
Data set [18] relates to MOLM-13. The data set is described as follows: Antitumor activity against human MOLM-13 cells xenografted in NSG mouse assessed as tumor growth inhibition at 1.9 mg/kg, po qd administered for 5 days relative to control. Format: functional. Conditions: time 5 day.
In data set [19] the test system is MOLM-13. The data set is described as follows: Antitumor activity against human MOLM-13 cells xenografted in NSG mouse assessed as tumor growth inhibition at 3.75 mg/kg, po qd administered for 5 days relative to control. Conditions: time 5 day. Format: functional.
A further data set concerns MDR1. The data set is described as follows: Efflux ratio of apparent permeability across basolateral to apical side over apical to basolateral side in dog MDCK-MDR1 cells. Format: ADME, cell-based, Canis lupus familiaris.

The structures appear in SMILES notation.

T1 sequence (Q02127 whole entry, the tested form may be a part): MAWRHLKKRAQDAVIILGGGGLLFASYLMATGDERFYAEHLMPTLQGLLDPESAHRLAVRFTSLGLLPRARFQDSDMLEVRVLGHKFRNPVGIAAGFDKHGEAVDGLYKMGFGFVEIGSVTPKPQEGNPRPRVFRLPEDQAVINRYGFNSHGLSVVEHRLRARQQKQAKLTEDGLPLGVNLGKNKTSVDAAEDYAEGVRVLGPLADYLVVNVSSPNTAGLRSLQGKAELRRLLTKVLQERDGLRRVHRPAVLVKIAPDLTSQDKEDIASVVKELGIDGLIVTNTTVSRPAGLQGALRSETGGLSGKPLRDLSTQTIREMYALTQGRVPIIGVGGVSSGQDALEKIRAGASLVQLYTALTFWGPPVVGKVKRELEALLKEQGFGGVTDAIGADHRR
Chain of Cytochrome P450 2C19 (P33261 whole entry, the tested form may be a part): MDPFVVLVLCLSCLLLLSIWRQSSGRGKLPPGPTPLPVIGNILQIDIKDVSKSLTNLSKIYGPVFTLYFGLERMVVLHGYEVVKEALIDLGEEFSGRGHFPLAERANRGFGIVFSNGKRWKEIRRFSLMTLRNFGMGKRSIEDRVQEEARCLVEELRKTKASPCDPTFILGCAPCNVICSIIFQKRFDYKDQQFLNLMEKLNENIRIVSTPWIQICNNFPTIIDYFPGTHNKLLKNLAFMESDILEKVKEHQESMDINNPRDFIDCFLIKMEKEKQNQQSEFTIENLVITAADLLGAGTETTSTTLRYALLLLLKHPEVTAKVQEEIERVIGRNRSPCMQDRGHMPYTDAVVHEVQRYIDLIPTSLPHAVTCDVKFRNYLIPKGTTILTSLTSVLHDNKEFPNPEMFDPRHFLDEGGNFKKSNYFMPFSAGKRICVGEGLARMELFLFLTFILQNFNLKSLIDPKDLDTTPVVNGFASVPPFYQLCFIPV

With `CCn1c(CO)nn(-c2nc(O[C@@H](C)C(F)(F)F)c(C(=O)Nc3c(C)ccnc3Cl)cc2F)c1=O`, the CLH in data set [1] was 8 µL/min/mg; in data set [9] it was 5.7 µL/min/1e6 cells; in data set [13] it was 5.2 µL/min/1e6 cells; in data set [15] it was 4 µL/min/1e6 cells. For the same molecule, the Activity entry in [2] was “Non-Toxic”. Moreover, the half-life in data set [3] was 2 h; in data set [14], 2.3 h. The Vdss in data set [4] was determined as 2.3 L/kg; in data set [11], 1.3 L/kg. For the same molecule, the figures for the IC50 (at Cytochrome P450 2C19; in data set [6]; with THP-1) were above 10000 nM, 1.6 nM and 5 nM, respectively. In data set [5], this molecule gave a Kd of 3.3 nM. Further, in the data set with MOLM-13 [7], the inhibition in vivo at 20 mg/kg was 60%. In the data set on MOLM-13 [8], the inhibition in vivo at 10 mg/kg amounted to 44%. This molecule returned a T1/2 in data set [10] of 0.5 h. Also, in data set [12], the CLint scaled is 4 mL/min/kg.
In the case of `CCn1c(CO)nn(-c2nc(O[C@@H](C)C(F)(F)F)c(C(=O)Nc3c(C)cnc(OC)c3Cl)cc2F)c1=O`, the CLH was below 7.7 µL/min/mg in data set [1], 5.5 µL/min/1e6 cells in data set [9], 6.2 µL/min/1e6 cells in data set [13] and 5.3 µL/min/1e6 cells in data set [15]. Besides, the half-life is 4 h in data set [3] and 5 h in [14]. Further, the Vdss in data set [4] was determined as 2.2 L/kg; in [11], 2.4 L/kg. Moreover, the figures for the IC50 (against Cytochrome P450 2C19; in [6]; with THP-1) were above 10000 nM, 0.54 nM and 1.4 nM, respectively. Also, the Activity entry in data set [16] was “Non-Toxic”. The dissociation constant Kd in [5] is 1.1 nM. The inhibition of tumour growth (TGI) turned out to be 79% in the data set with MOLM-13 [17], 71% in the data set with MOLM-13 [18] and 76% with MOLM-13 [19]. For the same molecule, the T1/2 in [10] turned out to be 0.65 h. For the same molecule, the CLint scaled in [12] was 5.3 mL/min/kg. Further, in the data set on MDR1, the efflux ratio was above 30.
